Among the test systems are HL-60(TB) leukemia; K-562 leukemia; MALME-3M melanoma; U251 CNS; LOX IMVI melanoma; NCI/ADR-RES ovarian; NCI-H522 lung; MOLT-4 leukemia; OVCAR-5 ovarian; UACC-62 melanoma.
Holding throughout (assay): inhibition of tumour cell growth, NCI panel, 48 h

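A five-concentration, 48-hour dose response in 96-well plates underlies each endpoint, interpolated linearly between surrounding concentrations. Here, GI50 denotes the concentration required for 50% inhibition of growth. TGI denotes the concentration required for complete inhibition of growth.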 A value given as a limit tells only on which side of the number the result lay.

`COc1cc(CN(c2ccc(C)cc2)C2OC(=O)c3ccccc32)cc(OC)c1OC` (centres undefined): the GI50 in the assay on HL-60(TB) leukemia is 0.406 µM; in the assay with K-562 leukemia it was 0.365 µM; with U251 CNS, 0.397 µM; in the assay on LOX IMVI melanoma it was 0.635 µM; in the assay with NCI/ADR-RES ovarian it was 0.389 µM; in the assay on NCI-H522 lung it was 0.47 µM. Moreover, the GI50 was 0.908 µM with MOLT-4 leukemia, 1.58 µM with OVCAR-5 ovarian and 0.582 µM in the assay with UACC-62 melanoma. For the same compound, the TGI in the assay with HL-60(TB) leukemia is 33.7 µM; in the assay with K-562 leukemia it was over 100 µM; with MALME-3M melanoma, over 100 µM; with U251 CNS, over 100 µM; with LOX IMVI melanoma it was over 100 µM; in the assay on NCI/ADR-RES ovarian, over 100 µM. The TGI in the assay with NCI-H522 lung was 4.24 µM; in the assay on MOLT-4 leukemia, over 100 µM; in the assay with OVCAR-5 ovarian, over 100 µM; with UACC-62 melanoma it was over 100 µM.

With `CCc1nc2cc(/C=C/C(=O)NO)ccc2c(=O)n1CCc1ccc(OC)cc1`, the GI50 in the assay with HL-60(TB) leukemia was 3.47 µM; in the assay with K-562 leukemia, 3.07 µM; with MALME-3M melanoma, 1.53 µM; with U251 CNS it was 1.99 µM; with LOX IMVI melanoma, 1.68 µM; in the assay on NCI/ADR-RES ovarian, 1.35 µM. Also, the GI50 was 1.43 µM in the assay on NCI-H522 lung, 2.5 µM in the assay on MOLT-4 leukemia, 2.5 µM with OVCAR-5 ovarian and 1.59 µM with UACC-62 melanoma. Further, the TGI is over 100 µM with HL-60(TB) leukemia; over 100 µM in the assay with K-562 leukemia; 8.28 µM in the assay with MALME-3M melanoma; 4.87 µM with U251 CNS; 3.19 µM in the assay with LOX IMVI melanoma; 12.3 µM in the assay on NCI/ADR-RES ovarian. Further, the TGI is 4.66 µM with NCI-H522 lung, over 100 µM with MOLT-4 leukemia, 30 µM in the assay with OVCAR-5 ovarian and 4.33 µM with UACC-62 melanoma.

Turning to `Cc1c(C)c2c(c(C)c1OCC(=O)O)CC[C@@](C)(CCC[C@@H](C)CCC[C@@H](C)CCCC(C)C)O2`, the GI50 in the assay on HL-60(TB) leukemia is 77.2 µM; in the assay on K-562 leukemia it was 62.5 µM; in the assay on MALME-3M melanoma it was 66.5 µM; in the assay with U251 CNS, 52.7 µM; with LOX IMVI melanoma it was 78.7 µM; in the assay with NCI/ADR-RES ovarian it was 78.7 µM. The GI50 in the assay on NCI-H522 lung was 64.1 µM; in the assay on MOLT-4 leukemia it was 50.4 µM; in the assay on OVCAR-5 ovarian it was 86.3 µM; in the assay on UACC-62 melanoma, 61.1 µM. In addition, the TGI in the assay on HL-60(TB) leukemia worked out at 156 µM; in the assay on K-562 leukemia it was 287 µM; in the assay on MALME-3M melanoma, 130 µM; in the assay on U251 CNS, 133 µM; in the assay with LOX IMVI melanoma, 216 µM; in the assay on NCI/ADR-RES ovarian, 210 µM. The TGI in the assay on NCI-H522 lung was 154 µM; with MOLT-4 leukemia, 202 µM; with OVCAR-5 ovarian, 155 µM; in the assay with UACC-62 melanoma, 126 µM.
